# Several values for one entry are separate records, joined by “and”; a condition that tells them apart may be missing. Equal values may be shown once.
# What was measured:
# [1] = Ulcerogenic activity in fasted albino mouse assessed as average number of ulcers in gastric mucosa at 10 mg/kg, po for 3 days (reference value: 0); format: toxicity, organism-based; conditions: in vivo, 72 h, time 3 day
# [2] = system: Rattus norvegicus; test: Antiinflammatory activity in Wistar rat model of carrageenan-induced paw edema assessed as reduction in thickness of paw edema at 10 mg/kg, ip pretreated for 1 hr followed by carrageenan challenge and measured after 24 hrs (reference value: 0.83 +/-0.08 mm); format: functional; conditions: time 25 hrs
# [3] = system: Rattus norvegicus; test: Anti-inflammatory activity in Wistar rat assessed as inhibition of carrageenan-induced paw edema at 10 mg/kg, ip pretreated for 1 hr followed by carrageenan challenge and measured after 24 hr relative to control (reference value: 0.00 +/-0.3 %); format: functional; conditions: time 25 hrs
# [4] = system: Mus musculus; test: Analgesic activity in albino mouse assessed as protection at 10 mg/kg, ip measured after 120 mins by hot plate test relative to indomethacin; format: functional; conditions: 2 h
# [5] = system: Rattus norvegicus; test: Antiinflammatory activity in Wistar rat model of carrageenan-induced paw edema assessed as reduction in thickness of paw edema at 10 mg/kg, ip pretreated for 1 hr followed by carrageenan challenge and measured after 4 hrs (reference value: 1.40 +/-0.10 mm); format: functional; conditions: time 5 hrs
# [6] = system: Candida albicans; test: Antifungal activity against Candida albicans incubated for 18 to 24 hrs by CLSI method; format: functional; conditions: time 18-24 hrs
# [7] = system: Mus musculus; test: Analgesic activity in albino mouse assessed reduction in acetic acid-induced abdominal writhing by measuring writing reflex at 10 mg/kg, ip pretreated for 1 hr followed by acetic acid challenge and measured starting 5 mins post acetic acid challenge for 10 mins (reference value: 42.4 +/- 1.02); format: functional; conditions: time 75 min, 1.25 h
# [8] = system: Mus musculus; test: Analgesic activity in albino mouse assessed as forepaw licking/jumping latency time at 10 mg/kg, ip measured after 30 mins by hot plate test (reference value: 5.02 +/- 0.09 sec); format: functional; conditions: 0.5 h
# [9] = Ulcerogenic activity in fasted albino mouse assessed as ulcer index in gastric mucosa at 10 mg/kg, po for 3 days (reference value: 0); format: toxicity, organism-based; conditions: in vivo, 72 h, time 3 day
# [10] = system: Mus musculus; test: Analgesic activity in albino mouse assessed as protection at 10 mg/kg, ip measured after 60 mins by hot plate test (reference value: 0 %); format: functional; conditions: 1 h
# [11] = system: Pseudomonas aeruginosa; test: Antibacterial activity against Pseudomonas aeruginosa ATCC 27853 incubated for 18 hrs by agar dilution assay; format: functional
# [12] = system: A549; test: Antiproliferative activity against human A549 cells assessed as inhibition of cell growth after 72 hrs by MTT assay; format: functional, cell-based; conditions: A549, 72 h
# [13] = system: Mus musculus; test: Analgesic activity in albino mouse assessed as protection at 10 mg/kg, ip measured after 120 mins by hot plate test (reference value: 0 %); format: functional; conditions: 2 h
# [14] = system: Rattus norvegicus; test: Antiinflammatory activity in Wistar rat model of carrageenan-induced paw edema assessed as reduction in thickness of paw edema at 10 mg/kg, ip pretreated for 1 hr followed by carrageenan challenge and measured after 2 hrs (reference value: 2.06 +/-0.09 mm); format: functional; conditions: time 3 hrs
# [15] = system: Mus musculus; test: Analgesic activity in albino mouse assessed protection against acetic acid-induced abdominal writhing at 10 mg/kg, ip pretreated for 1 hr followed by acetic acid challenge and measured starting 5 mins post acetic acid challenge for 10 mins relative to control (reference value: 0 %); format: functional; conditions: time 75 min, 1.25 h
# [16] = system: Rattus norvegicus; test: Antiinflammatory activity in Wistar rat model of carrageenan-induced paw edema assessed as reduction in thickness of paw edema at 10 mg/kg, ip pretreated for 1 hr followed by carrageenan challenge and measured after 1 hr (reference value: 2.41 +/-0.05 mm); format: functional; conditions: time 1 hr after carrageenan
# [17] = system: Salmonella typhimurium; test: Antibacterial activity against Salmonella typhimurium ATCC 19430 incubated for 18 hrs by agar dilution assay; format: functional, Salmonella enterica subsp. enterica serovar Typhimurium; conditions: Salmonella enterica
# [18] = system: Rattus norvegicus; test: Anti-inflammatory activity in Wistar rat assessed as inhibition of carrageenan-induced paw edema at 10 mg/kg, ip pretreated for 1 hr followed by carrageenan challenge and measured after 3 hr relative to control (reference value: 0.00 +/-0.1 %); format: functional; conditions: time 4 hrs
# [19] = system: Rattus norvegicus; test: Antiinflammatory activity in Wistar rat model of carrageenan-induced paw edema assessed as reduction in thickness of paw edema at 10 mg/kg, ip pretreated for 1 hr followed by carrageenan challenge and measured after 3 hrs (reference value: 1.79 +/-0.07 mm); format: functional; conditions: time 4 hrs
# [20] = system: Mus musculus; test: Analgesic activity in albino mouse assessed as forepaw licking/jumping latency time at 10 mg/kg, ip measured after 90 mins by hot plate test (reference value: 2.72 +/- 0.01 sec); format: functional; conditions: 1.5 h
# [21] = Ulcerogenic activity in fasted albino mouse assessed as incidence of gastric ulceration at 10 mg/kg, po for 3 days (reference value: 0 %); format: toxicity, organism-based; conditions: in vivo, 72 h, time 3 day
# [22] = system: Mus musculus; test: Analgesic activity in albino mouse assessed as protection at 10 mg/kg, ip measured after 30 mins by hot plate test (reference value: 0 %); format: functional; conditions: 0.5 h
# [23] = system: Mus musculus; test: Analgesic activity in albino mouse assessed as forepaw licking/jumping latency time at 10 mg/kg, ip measured after 120 mins by hot plate test (reference value: 2.62 +/- 0.06 sec); format: functional; conditions: 2 h
# [24] = Toxicity in albino mouse assessed as induction of toxic symptoms at 50 to 100 mg/kg, ip measured after 24 hrs; format: organism-based; conditions: in vivo, dose 50-100 mg/kg
# [25] = system: Mus musculus; test: Analgesic activity in albino mouse assessed as protection at 10 mg/kg, ip measured after 90 mins by hot plate test (reference value: 0 %); format: functional; conditions: 1.5 h
# [26] = system: Splenocyte; test: Immunomodulatory activity in Swiss albino mouse splenocytes assessed as cell viability at 10 uM by measuring inhibition of stimulation index incubated for 72 hrs in presence of mitogenic stimulus phytohaemagglutinin by MTT assay relative to indomethacin; format: functional; conditions: read-out: Activity
# [27] = Ulcerogenic activity in fasted albino mouse assessed as average severity of ulcers in gastric mucosa at 10 mg/kg, po for 3 days (reference value: 0); format: toxicity, organism-based; conditions: in vivo, 72 h, time 3 day
# [28] = system: Mus musculus; test: Analgesic activity in albino mouse assessed protection against acetic acid-induced abdominal writhing at 10 mg/kg, ip pretreated for 1 hr followed by acetic acid challenge and measured starting 5 mins post acetic acid challenge for 10 mins relative to indomethacin; format: functional; conditions: time 75 min, 1.25 h
# [29] = system: MCF7; test: Antiproliferative activity against human MCF7 cells assessed as inhibition of cell growth after 72 hrs by MTT assay; format: functional, cell-based; conditions: MCF7, 72 h
# [30] = system: Peritoneal macrophage; test: Antiinflammatory activity in […] mouse Peritoneal macrophages assessed as reduction in LPS-induced NO production by measuring reduction in stimulation index at 10 uM preincubated for 1 hr followed by LPS stimulation measured after 24 hrs by Griess method (reference value: 27.31 +/- 2.56 uM); format: functional; conditions: time 25 hrs
# [31] = system: Rattus norvegicus; test: Anti-inflammatory activity in Wistar rat assessed as inhibition of carrageenan-induced paw edema at 10 mg/kg, ip pretreated for 1 hr followed by carrageenan challenge and measured after 4 hr relative to indomethacin; format: functional; conditions: time 5 hrs
# [32] = system: Rattus norvegicus; test: Anti-inflammatory activity in Wistar rat assessed as inhibition of carrageenan-induced paw edema at 10 mg/kg, ip pretreated for 1 hr followed by carrageenan challenge and measured after 2 hr relative to control (reference value: 0.00 +/-0.03 %); format: functional; conditions: time 3 hrs
# [33] = system: PC-3; test: Antiproliferative activity against human PC3 cells assessed as inhibition of cell growth after 72 hrs by MTT assay; format: functional, cell-based; conditions: PC-3, 72 h
# [34] = system: Streptococcus pyogenes; test: Antibacterial activity against Streptococcus pyogenes ATCC 19615 incubated for 18 hrs by agar dilution method; format: functional
# [35] = system: Splenocyte; test: Immunomodulatory activity in Swiss albino mouse splenocytes assessed as cell viability at 10 uM by measuring stimulation index incubated for 72 hrs in presence of mitogenic stimulus phytohaemagglutinin by MTT assay (reference value: 1.00 +/- 0.24); format: functional
# [36] = system: Staphylococcus aureus; test: Antibacterial activity against Staphylococcus aureus ATCC 25923 incubated for 18 hrs by agar dilution method; format: functional
# [37] = system: Rattus norvegicus; test: Anti-inflammatory activity in Wistar rat assessed as inhibition of carrageenan-induced paw edema at 10 mg/kg, ip pretreated for 1 hr followed by carrageenan challenge and measured after 1 hr relative to control (reference value: 0.00 +/-0.02 %); format: functional; conditions: time 2 hrs
# [38] = system: Rattus norvegicus; test: Anti-inflammatory activity in Wistar rat assessed as inhibition of carrageenan-induced paw edema at 10 mg/kg, ip pretreated for 1 hr followed by carrageenan challenge and measured after 4 hr relative to control (reference value: 0.00 +/-0.4 %); format: functional; conditions: time 5 hrs
# [39] = system: Peritoneal macrophage; test: Antiinflammatory activity in […] mouse Peritoneal macrophages assessed as inhibition of LPS-induced NO production at 10 uM preincubated for 1 hr followed by LPS stimulation measured after 24 hrs by Griess method relative to control (reference value: 0.0 %); format: functional; design: scale not given: the % may be the effect or the level left; conditions: time 25 hrs
# [40] = system: Mus musculus; test: Analgesic activity in albino mouse assessed as forepaw licking/jumping latency time at 10 mg/kg, ip measured after 60 mins by hot plate test (reference value: 3.42 +/- 0.03 sec); format: functional; conditions: 1 h
Structure (SMILES),Activity [1],Activity [2],inhibition in vivo at 10 mg/kg [3],Activity [4],Activity [5],MIC [6],Activity [7],Time [8],UI [9],Activity [10],MIC [11],IC50 [12],Activity [13],Activity [14],Activity [15],Activity [16],MIC [17],inhibition in vivo at 10 mg/kg [18],Activity [19],Time [20],further results
COc1cc(/C=C/C(=O)/C=C(O)/C=C/c2ccc(OC(=O)[C@@H](N)CCSC)c(OC)c2)ccc1OC(=O)[C@@H](N)CCSC.Cl.Cl,0,0.53 mm,36%,151%,0.04 mm,0.5 µg/mL and 0.711 µM,27.2,5.28 s,0,46.8%,0.5 µg/mL and 0.711 µM,32.8 µM,63.4%,0.62 mm,35.8%,0.86 mm,0.125 µg/mL and 0.178 µM,73%,0.49 mm,4.98 s,Activity [21]: 0%; Activity [22]: 5.2%; Time [23]: 4.28 s; Activity [24]: Non-Toxic; Activity [25]: 83.1%; viability at 10 µM [26]: 81.3%; Activity [27]: 0; Activity [28]: 58.1%; IC50 [29]: 11.3 µM; Activity [30]: 16.95 µM; inhibition in vivo at 10 mg/kg [31]: 111%; inhibition in vivo at 10 mg/kg [32]: 70%; IC50 [33]: 42.6 µM; MIC [34]: 0.5 µg/mL and 0.711 µM; Activity_index [35]: 1.49; MIC [36]: 0.25 µg/mL and 0.355 µM; inhibition in vivo at 10 mg/kg [37]: 64%; inhibition in vivo at 10 mg/kg [38]: 97%; Activity [39]: 37.94%; Time [40]: 5.02 s
COc1cc(/C=C/C(=O)/C=C(O)/C=C/c2ccc(OC(=O)[C@@H](C)N)c(OC)c2)ccc1OC(=O)[C@@H](C)N.Cl.Cl,0,0.59 mm,29%,127.1%,0.06 mm,0.125 µg/mL and 0.214 µM,13.8,5.3 s,0,70.2%,1 µg/mL and 1.71 µM,30.9 µM,53.4%,0.79 mm,67.5%,0.95 mm,0.25 µg/mL and 0.428 µM,74%,0.46 mm,4.72 s,Activity [21]: 0%; Activity [22]: 5.6%; Time [23]: 4.02 s; Activity [24]: Non-Toxic; Activity [25]: 73.5%; viability at 10 µM [26]: 89.6%; Activity [27]: 0; Activity [28]: 109.6%; IC50 [29]: 10.4 µM; Activity [30]: 16.04 µM; inhibition in vivo at 10 mg/kg [31]: 110%; inhibition in vivo at 10 mg/kg [32]: 62%; IC50 [33]: 30.7 µM; MIC [34]: 0.25 µg/mL and 0.428 µM; Activity_index [35]: 1.35; MIC [36]: 0.125 µg/mL and 0.214 µM; inhibition in vivo at 10 mg/kg [37]: 61%; inhibition in vivo at 10 mg/kg [38]: 96%; Activity [39]: 41.26%; Time [40]: 5.82 s

# From ChEMBL document CHEMBL4765295, “Synthesis, pharmacological profile and 2D-QSAR studies of curcumin-amino acid conjugates as potential drug candidates” (Eur J Med Chem, 2020)
